{"source": "ChEMBL document CHEMBL1131949", "about": "“Stereoselective synthesis and receptor activity of conformationally defined retinoid X receptor selective ligands” (Bioorg Med Chem Lett, 1999)", "key": {"[1]": {"target": "T1, Retinoic acid receptor RXR-beta (Homo sapiens, UniProt P28702)", "T1 sequence (P28702 whole entry)": "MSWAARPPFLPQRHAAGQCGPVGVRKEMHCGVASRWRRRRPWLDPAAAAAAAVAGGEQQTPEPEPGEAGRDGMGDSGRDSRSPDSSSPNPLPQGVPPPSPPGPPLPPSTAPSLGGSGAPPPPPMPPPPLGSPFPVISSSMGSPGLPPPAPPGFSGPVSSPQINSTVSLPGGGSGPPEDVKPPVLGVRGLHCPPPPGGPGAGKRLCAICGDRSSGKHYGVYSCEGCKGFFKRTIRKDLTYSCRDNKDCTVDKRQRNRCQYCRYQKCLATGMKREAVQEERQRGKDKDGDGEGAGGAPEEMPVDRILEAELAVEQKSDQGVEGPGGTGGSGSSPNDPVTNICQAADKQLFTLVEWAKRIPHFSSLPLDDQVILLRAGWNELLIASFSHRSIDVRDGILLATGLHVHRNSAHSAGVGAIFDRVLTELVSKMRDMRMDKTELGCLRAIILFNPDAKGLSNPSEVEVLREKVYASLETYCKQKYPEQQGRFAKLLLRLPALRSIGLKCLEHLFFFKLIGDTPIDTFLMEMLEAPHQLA", "assay": "Inhibition of [3H]-9-cis RA binding to Retinoid X receptor RXR beta"}, "[2]": {"target": "T2, Retinoic acid receptor RXR-gamma (Homo sapiens, UniProt P48443)", "T2 sequence (P48443 whole entry)": "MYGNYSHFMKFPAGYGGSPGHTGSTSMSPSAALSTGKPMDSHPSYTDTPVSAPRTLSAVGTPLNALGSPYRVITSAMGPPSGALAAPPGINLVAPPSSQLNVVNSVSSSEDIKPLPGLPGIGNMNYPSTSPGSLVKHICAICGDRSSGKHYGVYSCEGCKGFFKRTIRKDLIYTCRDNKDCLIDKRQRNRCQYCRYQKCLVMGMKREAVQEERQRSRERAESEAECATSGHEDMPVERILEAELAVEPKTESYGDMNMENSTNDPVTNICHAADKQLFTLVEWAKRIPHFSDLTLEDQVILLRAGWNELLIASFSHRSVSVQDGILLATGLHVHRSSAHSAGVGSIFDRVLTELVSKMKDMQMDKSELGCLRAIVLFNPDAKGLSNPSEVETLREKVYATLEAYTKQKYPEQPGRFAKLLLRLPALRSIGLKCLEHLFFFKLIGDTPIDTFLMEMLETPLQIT", "assay": "Inhibition of [3H]-9-cis RA binding to Retinoid X receptor RXR gamma"}}}
{"smiles": "CC1=C(/C=C/c2ccccc2/C=C/C(C)=C/C(=O)O)C(C)(C)CCC1", "values": [{"measurement": "Kd", "setting": "[1]", "value": 53, "unit": "nM"}, {"measurement": "Kd", "setting": "[2]", "value": 35, "unit": "nM"}]}
{"smiles": "CC1=C(/C=C/c2occc2/C=C/C(C)=C/C(=O)O)C(C)(C)CCC1", "values": [{"measurement": "Kd", "setting": "[1]", "value": 15, "unit": "nM"}, {"measurement": "Kd", "setting": "[2]", "value": 14, "unit": "nM"}]}
